The structures appear in SMILES notation. Bounds are passed on as bounds.

The target in series [1] is T1, Capsid scaffolding protein (Herpes simplex virus (type 1 / strain 17), UniProt P10210).
T1 sequence (P10210 whole entry): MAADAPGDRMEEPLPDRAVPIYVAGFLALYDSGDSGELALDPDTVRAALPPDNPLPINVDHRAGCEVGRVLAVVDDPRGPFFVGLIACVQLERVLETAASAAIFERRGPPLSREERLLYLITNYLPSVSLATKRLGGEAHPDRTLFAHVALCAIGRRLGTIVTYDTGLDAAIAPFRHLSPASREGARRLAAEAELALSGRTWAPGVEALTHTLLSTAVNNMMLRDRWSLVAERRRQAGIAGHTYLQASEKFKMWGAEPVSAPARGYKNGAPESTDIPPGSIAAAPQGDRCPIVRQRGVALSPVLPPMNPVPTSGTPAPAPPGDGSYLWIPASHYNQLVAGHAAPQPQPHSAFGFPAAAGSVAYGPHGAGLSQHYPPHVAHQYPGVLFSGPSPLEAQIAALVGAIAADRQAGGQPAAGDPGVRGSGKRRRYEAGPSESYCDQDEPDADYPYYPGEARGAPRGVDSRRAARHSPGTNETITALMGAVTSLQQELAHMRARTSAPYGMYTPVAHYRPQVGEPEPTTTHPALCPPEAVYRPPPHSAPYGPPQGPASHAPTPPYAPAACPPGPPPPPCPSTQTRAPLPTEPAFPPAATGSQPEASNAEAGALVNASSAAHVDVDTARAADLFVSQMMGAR
As to the kind of experiment: Inhibitory activity against herpes simplex type 1 protease (HSV-1 pr).

The nature of series [2]: Half-life in aqueous solution. The format is ADME.

By IC50 is commonly meant the point on the concentration scale where inhibition reaches its midpoint. With `C[C@H](NC(=O)OCc1ccccc1)c1nc2cccc(F)c2c(=O)o1`, the IC50 in series [1] was 50 µM.
Still for that read-out and setting: the value for `CCOc1nc2cccc(C)c2c(=O)o1` was 15 µM; that for `CCCCNc1nc2ccccc2c(=O)o1` was 300 µM.
`CCOc1nc2cccc(Cl)c2c(=O)o1` gave an IC50 in series [1] of 7 µM.
Still for that read-out and setting: the figure for `O=c1oc(Nc2cccc(F)c2)nc2ccccc12` is over 300 µM; for `COC(=O)C(C)Nc1nc2ccccc2c(=O)o1` (stereo not drawn) it is 25 µM.
In turn, `C=CCOc1nc2ccccc2c(=O)o1` returned a half-maximal inhibitory concentration (IC50) in series [1] of 15 µM.
In series [1], `C[C@H](NC(=O)OCc1ccccc1)c1nc2cc(N)ccc2c(=O)o1` had an IC50 of 150 µM.
The molecule `C[C@H](NC(=O)OCc1ccccc1)c1nc2ccccc2c(=O)o1` had an IC50 in series [1] of 50 µM.
For `Cc1cccc2nc([C@H](C)NC(=O)OCc3ccccc3)oc(=O)c12`, the IC50 in series [1] came out at 120 µM.
In turn, `CC(C)Nc1nc2cc(NC(=O)C(CC(N)=O)NC(=O)OCc3ccccc3)ccc2c(=O)o1` (stereo not drawn) yielded an IC50 in series [1] of 15 µM.
A word on the half-life: it is how long it takes for the measured level to halve. Read a low half-life as fast loss. The molecule `CCOc1nc2c(Cl)ccc(Cl)c2c(=O)o1` showed a half-life in series [2] of 1 h. Also, the IC50 in series [1] was 1.5 µM.
`CC(C)Nc1nc2cc(NC(=O)C(C)NC(=O)OCc3ccccc3)ccc2c(=O)o1` (stereo not drawn) had a half-life in series [2] of 171 h. For the same molecule, the half-maximal inhibitory concentration (IC50) in series [1] was 5 µM.
As for `CCOc1nc2cccc(CC)c2c(=O)o1`, the IC50 in series [1] stood at 20 µM.
`CC(Nc1nc2ccccc2c(=O)o1)c1ccccc1` (stereo not drawn) came in with an IC50 in series [1] of 60 µM.
Turning to `CCOc1nc2ccccc2c(=O)o1`, the IC50 in series [1] stood at 25 µM.
The same measure, in the same setting: the value for `CC(NC(=O)OCc1ccccc1)C(=O)Nc1ccc2c(=O)oc([C@H](C)NC(=O)OCc3ccccc3)nc2c1` (stereo partly drawn) was 12 µM; that for `CCOc1nc2cccc(F)c2c(=O)o1` was 75 µM.
Regarding `CCc1cccc2nc([C@H](C)NC(=O)OCc3ccccc3)oc(=O)c12`, the IC50 in series [1] is over 300 µM.
On the same count and under the same terms, the value for `O=c1oc(Oc2ccccc2)nc2ccccc12` was 10 µM.
Take `C[C@H](NC(=O)OCc1ccccc1)c1nc2cccc(Cl)c2c(=O)o1`: the IC50 in series [1] was over 300 µM.
In series [1], `COc1ccc(Oc2nc3ccccc3c(=O)o2)cc1` yielded an IC50 of 2.5 µM.
Regarding `CC(C)COC(=O)Nc1ccc2c(=O)oc(NC(C)C)nc2c1`, the IC50 in series [1] was 50 µM.
Regarding `CC(C)Nc1nc2ccccc2c(=O)o1`, the IC50 in series [1] came out at 25 µM.
The molecule `C[C@@H](NC(=O)OCc1ccccc1)c1nc2cccc(F)c2c(=O)o1` came in with a half-maximal inhibitory concentration (IC50) in series [1] of 200 µM.
Consider `CC(C)Nc1nc2cc(N)ccc2c(=O)o1`, for which, in series [1], the IC50 turned out to be 55 µM.

The values are drawn from ChEMBL document CHEMBL1151516, “Inhibition of HSV-1 protease by benzoxazinones” (Bioorg Med Chem Lett, 1996).
